Data: paper PMC5700102, “Primer synthesis by a eukaryotic-like archaeal primase is independent of its Fe-S cluster” (Nature Communications, 2017)

Target: T1, PriSLX (Saccharolobus solfataricus, UniProt Q97Z83+Q97ZS7)
T1 construct: gene priS; heterotrimer co-expressed in E. coli Rosetta2(DE3) from pETDuet PriL/PriS and pRSFDuet PriX; no tag mentioned; PriL 307 and PriX 154 residues; with DNA primase large subunit PriL
T1 sequence (Q97Z83 1-330): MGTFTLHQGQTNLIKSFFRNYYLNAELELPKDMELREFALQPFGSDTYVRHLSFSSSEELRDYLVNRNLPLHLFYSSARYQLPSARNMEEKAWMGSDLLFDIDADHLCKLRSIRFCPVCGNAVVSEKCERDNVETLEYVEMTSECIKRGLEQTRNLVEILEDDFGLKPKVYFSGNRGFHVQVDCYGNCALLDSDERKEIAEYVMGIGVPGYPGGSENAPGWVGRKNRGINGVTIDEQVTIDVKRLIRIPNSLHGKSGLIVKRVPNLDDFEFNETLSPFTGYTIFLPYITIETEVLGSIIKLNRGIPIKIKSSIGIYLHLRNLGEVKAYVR
T1 sequence (Q97ZS7 1-154): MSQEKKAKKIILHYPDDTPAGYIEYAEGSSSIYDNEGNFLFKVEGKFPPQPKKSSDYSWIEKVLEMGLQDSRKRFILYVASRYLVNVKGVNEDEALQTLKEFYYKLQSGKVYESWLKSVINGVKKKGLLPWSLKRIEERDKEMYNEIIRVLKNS
T1 sequence (Q9UWW1 1-307 partner): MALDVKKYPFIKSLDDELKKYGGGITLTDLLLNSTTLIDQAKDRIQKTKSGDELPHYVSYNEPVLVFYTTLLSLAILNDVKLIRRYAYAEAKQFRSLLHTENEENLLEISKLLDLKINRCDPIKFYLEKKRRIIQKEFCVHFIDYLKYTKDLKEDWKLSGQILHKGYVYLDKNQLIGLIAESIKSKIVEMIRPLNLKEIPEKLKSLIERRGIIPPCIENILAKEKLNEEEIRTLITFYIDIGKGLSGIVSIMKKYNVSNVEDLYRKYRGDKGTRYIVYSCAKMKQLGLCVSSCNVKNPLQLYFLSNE
Assay: X-ray crystal structure, […] Å
Type: binding
Conditions: two molecules bound: PriS active site (elongation site) and PriX initiation site at the PriX-PriS interface; MnCl2

With `Nc1ncnc2c1ncn2[C@@H]1O[C@H](COP(=O)(O)CP(=O)(O)OP(=O)(O)O)[C@@H](O)[C@H]1O` [AMPCPP] the “X-ray crystal structure, 2.9 Å” value was “The first AMPCPP was bound in the active site of PriS”.
